The values below come from patent US12122811B2, “BDNF mimetic peptide amphiphiles” (Northwestern University, priority 2018, dated 2024).

One assay relates to cortical neurons. As to the kind of experiment: Infiltration and maturation of cortical neurons on 3D PA gel scaffolds. Format: cell-based, mouse. Particulars: neurons on gels, one week. The procedure: Gels were made using annealed PAs prepared with methods described herein 1. BDNF native protein or BDNF peptide were incorporated by mixing at 10 nM or 0.5 uM respectively, with E2 Filler PA gel at 1 wt % while it was in its liquid state. Silicon isolators with adhesive (Invitrogen) were placed on PDL coated glass coverslips. 70 μL of PA liquid was pipetted into the circular silicon well and a Transwell insert was placed flush with the top of the well of the silicon insert. This step ensured a flat, even thickness for all gels. Gelling solution comprised of 125 mM NaCl, 3 mM KCl, and 25 mM CaCl2 was pipetted into the Transwell insert and allowed to slowly soak down into the material from the top. The insert prevented the gel from swelling more than the thickness of the silicon isolator. All gels were incubated at 37° C. for 5 min before removing the Transwell insert.
Infiltration Study. Gels were prepared as described in 2.1.2. Gels were then rinsed with media one time before cells were seeded on top at a density of approximately 42,000 cells/well. Cells were cultured for one week in vitro. Half of the gels were analyzed by patch clamp analysis (see section 3.4.9. Other gels were fixed with 4% PFA to perform infiltration studies. Cell were stained for MAP2, TUJ-1 and DAPI using immunocytochemistry methods described previously. Confocal microscopy was used to make z-stack reconstructions of each gel. The MultiMeasure function in the ROI manager of ImageJ was used to measure the depth of pixels for each channel which was then plotted as intensity vs depth in the gel. The average intensity of MAP2 was measured by averaging the mean intensities obtained from maximum intensity projections of z-stacks images of gels.

The target in another assay is T1, TrkB receptor (Mus musculus, UniProt P15209).
T1 construct: Protein was extracted from primary neuronal cultures; endogenous in cells; host or cells: primary cortical neurons from E16 CD1 mouse embryos, 14 DIV
As to the kind of experiment: TrkB receptor phosphorylation (p-TrkB) by western blot in primary cortical neurons. Format: cell-based. Particulars: for TrkB phosphorylation: 4 and 6 h timepoints, 0.5 μM. The procedure:
2.3.2. Dissection of Embryonic Primary Cortical Neurons. Neurons were obtained from embryonic brains as described elsewhere.^2 Briefly, time-pregnant mouse was sacrificed by cervical dislocation and the embryos were extracted at embryonic day 16 (E16). Cerebral cortices were dissected from the mouse embryos and meninges were removed in a solution of Hank's Balanced Salt Solution (HBSS) with 1% pen-strep (Invitrogen) and then digested with trypsin (Invitrogen) and DNAse (Sigma-Aldrich) for 10 min at 37° C. The tissue was mechanically dissociated, centrifuged at 1000 g for 5 min, and resuspended in CO2-equilibrated Neurobasal (NB) neuronal culture medium (Invitrogen) supplemented with 10% normal horse serum (NHS) (Invitrogen), 1% pen-strep (Invitrogen), 0.5 mM L-glutamine (Invitrogen), and 5.8 μL NaHCO3/mL (Sigma-Aldrich). The cell suspension was pre-plated at 37° C. for 30 min. Afterwards, the supernatant was collected, passed through a cell strainer with 100 μm pore size and centrifuged at 1000 g for 5 min. The pellet was resuspended in NB neuronal culture medium (1% NHS, 1% pen-strep, 0.5 mM L-glutamine, 22 μM glutamic acid (Sigma-Aldrich), 2% B27 (Gibco), and 5.8 μL NaHCO3/mL (Sigma-Aldrich), and plated at different densities (depending on the type of experiment, see below) directly on tissue culture plates coated with poly-D-lysine (Sigma-Aldrich). After 24 hs, the medium was replaced with serum-free neuronal culture medium (1% pen-strep, 0.5 mM L-glutamine, 2% B27, 5.8 μL NaHCO3/mL). Under these conditions, we obtained a neuron-enriched culture with a composition of approximately 10% glial cells.
BDNF PA Treatments and Cell Culture Procedures. Treatments were prepared by dissolving PA (including E2 Filler, E2 Filler+E4PEG, E2 Filler+Linear BDNF, E2 Filler+BDNF PAs) and BDNF peptide at different concentrations (0.5, 1.0 or 5.0 μM), in media without serum or B27 supplement or starvation media. Unless otherwise noted, BDNF PA, Linear BDNF PA, or E4PEG PAs were co-assembled at 10 mol % with E2 filler PA (total concentration of PA was 5.0, 10.0, or 50.0 μM respectively). For the co-assembly ratio study, BDNF PA was co-assembled at 10, 20, 50, 70, 90, and 100 mol %. Human/Murine/Rat BDNF protein (Peprotech) was resuspended at different concentrations (0.25, 0.5 and 1 nM) in starvation media.
For western blot, cells were cultured in 6 well plates at a density of approximately 900,000 cells/well for 14 DIV before being treated. Treatments were added for 2, 4, 6, 8, 12 or 24 h in vitro before protein was harvested. […] Protein was extracted after six hours of treatment.
Western Blot. Protein was extracted from primary neuronal cultures with Halt Protease and Phosphatase Inhibitor Cocktail (Thermo Scientific) and a BCA assay (Thermo Scientific) was performed to determine protein content of each sample. Cell protein was loaded into and separated using a 4-20% SDS-PAGE gel (Bio-Rad). It was then electrotransferred from the gel to a nitrocellulose membrane (Bio-Rad). The membranes were blocked with 5% milk solution (Bio-Rad) for 30 minutes followed by an overnight incubation with primary antibodies at 4° C. The following primary antibodies were used: rabbit anti-pTrkB (1:1000, Cell Signaling), rabbit anti-TrkB (1:1000, Cell Signaling), rabbit anti-Actin (1:2000, Sigma Aldrich), mouse anti-Actin (1:2000, Sigma Aldrich), rabbit anti-pPLCγ (1:1000, Cell Signaling), rabbit anti-PLCγ (1:1000, Cell Signaling), rabbit anti-pAKT (1:2000, Cell Signaling), mouse anti-AKT (1:2000, Cell Signaling), rabbit anti-pERK1+ERK2 (1:1000, Abcam), rabbit anti-ERK 1/2 (1:1000, Cell Signaling), rabbit anti-PSD95 (1:1000, Abcam), rabbit anti-MAP-2 (1:2000, BioLegend), and mouse anti-Tuj-1 (1:1000, BioLegend). Membranes were then incubated with their corresponding secondary HRP-conjugated antibodies (1:1000; ThermoFisher). Protein signals were detected using Radiance Bioluminescent ECL substrate (Azure Biosystems). […]
Background: A western blot detects proteins with antibodies after separation by electrophoresis.

Assay [1] concerns mouse model of spinal cord injury. As to the kind of experiment: Mouse model of spinal cord injury, Basso Mouse Scale hind limb scoring. Format: in vivo. Particulars: 12 weeks after injury; BDNF PA co-assembled at 20 mol % with E2 PA gel, injected 24 h after injury. The source says:
The spinal cord injury procedures used follow a standardized protocol to ensure a reproducible injury. Mice were anesthetized and their back is opened to reveal the vertebral column. The vertebral bone at T11 was surgically removed to reveal the spinal cord tissue. The mice were then transferred the impactor machine which is used to inflict a compression injury on the exposed spinal cord. The spinal cord was held in place using stereotactic clamps. The instrument inflicts a force of 70-80 kDynes and dwells in the place of the impact for 60 seconds to simulate a crush injury accident. This injury is quite severe. After each impact was performed, the instrument supplies a graph corresponding to the real force and trajectory of the impactor. This graph is used to compare and ensure that all animals receive an injury of the same nature. After the injury is inflicted, the animals were closed and allowed to rest for 24 hours.
The next day, the animals were re-opened and prepared for the “treatment” surgery. Before beginning the procedure, all animals underwent a behavioral assessment and mice with hind limb movement were discarded from the study. When the animal is re-opened, there was typically a dark, bruised area apparent where the crush injury took place the previous day. This is where the treatment was injected. A Hamilton syringe attached to a glass-pulled needle with a diameter of ˜300 μm was used to puncture the bruised dermis of the tissue and the treatment was injected into the underlying tissue cavity. Treatment types include; saline, and the C16V2A2E2 (E2) non-bioactive PA gel as negative controls, as well as the BDNF PA co-assembled at 20 mol % with the E2 non-bioactive PA gel.
After injection, the animals were closed and returned to cages to recover. Over the next 12 weeks, blinded hind limb behavioral scoring was performed to assess any functional changes (FIG. 21). A standardized “Basso Mouse Scale” was used (Basso et al. J Neurotrauma. 2006 May; 23(5):635-59.; herein incorporated by reference in its entirety). Two blinded researchers were either side of a runway where the mouse was guided to move in a straight line. As the mouse walks, each researcher grades the limb movement. Any discrepancies in evaluation were re-evaluated by a third researcher. The score for the two limbs was averaged and marked as the score for that animal.

Non-standard residues stand in square brackets, D forms with d. Primed or numbered codes have the meaning given here. No end group written: not given here. PEG6′ = PEG6 spacer

T1 sequence (P15209 32-821): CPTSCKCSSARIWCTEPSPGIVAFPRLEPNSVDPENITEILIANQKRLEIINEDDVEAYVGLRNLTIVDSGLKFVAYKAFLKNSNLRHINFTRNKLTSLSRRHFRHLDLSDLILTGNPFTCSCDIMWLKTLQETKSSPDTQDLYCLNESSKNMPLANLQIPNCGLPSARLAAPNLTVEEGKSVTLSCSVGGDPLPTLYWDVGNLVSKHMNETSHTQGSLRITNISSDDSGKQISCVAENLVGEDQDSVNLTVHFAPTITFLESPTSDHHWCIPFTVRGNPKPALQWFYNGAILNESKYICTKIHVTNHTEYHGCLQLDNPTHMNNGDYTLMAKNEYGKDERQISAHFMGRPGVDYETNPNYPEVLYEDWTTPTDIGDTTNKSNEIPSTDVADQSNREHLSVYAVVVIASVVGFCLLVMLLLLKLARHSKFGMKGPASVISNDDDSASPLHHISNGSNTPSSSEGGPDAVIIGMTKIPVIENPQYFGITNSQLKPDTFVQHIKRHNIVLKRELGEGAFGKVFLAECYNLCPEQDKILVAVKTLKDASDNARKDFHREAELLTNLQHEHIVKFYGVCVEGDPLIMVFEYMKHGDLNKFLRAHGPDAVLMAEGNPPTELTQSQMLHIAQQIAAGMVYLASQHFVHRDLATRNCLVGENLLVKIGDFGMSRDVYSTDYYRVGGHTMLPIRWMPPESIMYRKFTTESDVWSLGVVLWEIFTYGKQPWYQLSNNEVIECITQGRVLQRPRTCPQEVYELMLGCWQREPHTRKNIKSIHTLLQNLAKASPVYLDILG

C16V2A2E2 (EEAAVV) [E2 Filler PA]: in the assay on cortical neurons, the “distance that neurites infiltrated from the top of the scaffold” value is given as 36.9±9.9 μm and the “normalized average of MAP2 intensity” value is 0.32±0.06. Further, in the assay with TrkB receptor, the TrkB phosphorylation result is recorded as “none of these control conditions were able to induce TrkB phosphorylation”. Moreover, the “final average limb behavioral score (Basso Mouse Scale)” value in assay [1] came out at 2.4.
Turning to `COC(=O)[C@@]1(O)C[C@H]2O[C@]1(C)n1c3ccccc3c3c4c(c5c6ccccc6n2c5c31)C(=O)NC4` [K252a, reference compound], the “TrkB phosphorylation after pre-treatment with inhibitor K252a” value on TrkB receptor (K252a 2 h prior to treatment, 6 h post-treatment) was “completely blocked”.
For the molecule “Linear BDNF PA: non-cyclized BDNF PA synthesized as a control (chain 1 RKK[aK][dP][PEG6′]EEEEAAVV; chain 2 EEAAVV; not fully specified (C-terminus))”, the TrkB phosphorylation result with TrkB receptor is “lack of TrkB phosphorylation”.
